Results: patent US8426353B2, “Process for preparing polyurea microcapsules” (Firmenich SA, priority 2008, dated 2013)
Read-outs that look alike come from different tables or passages of the source.

Tests used:
[1] = LogP of the perfume ingredients
[2] = GC-MS analysis of perfume leaked out of the capsules during one month storage in concentrated fabric softener; type: physicochemical; settings: for Percentage of ingredient having leaked out of the capsules during one month storage, % In fabric softener 37° C.: perfume of Example 6 encapsulated per Example 2, capsules at 1.25%; for Percentage of ingredient having leaked out of the capsules during one month storage, % In fabric softener 37° C. / Percentage of perfume having leaked out of the capsules upon one month storage, % In fabric softener at 37° C.: one month at 37° C.; for Percentage of perfume having leaked out of the capsules upon one month storage, % In fabric softener at 22° C. / Percentage of perfume having leaked out of the capsules upon one month storage, % In fabric softener at 37° C.: perfume of Example 9 encapsulated per Example 2, capsules at 1.25%; for Percentage of perfume having leaked out of the capsules upon one month storage, % In fabric softener at 22° C.: one month at 22° C.
Method: The concentrated fabric softener base was prepared by admixing the ingredients listed in Table 4, in the amounts indicated.

[3] = GC-MS analysis of perfume leaked out of the capsules during one month storage in concentrated liquid detergent; type: physicochemical; settings: for Percentage of ingredient having leaked out of the capsules during one month storage, % In concentrated Liquid Detergent 22° C. / Percentage of ingredient having leaked out of the capsules during one month storage, % In concentrated Liquid Detergent 37° C.: perfume of Example 6 encapsulated per Example 2, capsules at 1.25% in Tide 2x Concentrated HE Free; for Percentage of ingredient having leaked out of the capsules during one month storage, % In concentrated Liquid Detergent 22° C. / Percentage of perfume having leaked out of the capsules upon one month storage, % In Concentrated Liquid Detergent at 22° C.: one month at 22° C.; for Percentage of ingredient having leaked out of the capsules during one month storage, % In concentrated Liquid Detergent 37° C. / Percentage of perfume having leaked out of the capsules upon one month storage, % In Concentrated Liquid Detergent at 37° C.: one month at 37° C.; for Percentage of perfume having leaked out of the capsules upon one month storage, % In Concentrated Liquid Detergent at 22° C. / Percentage of perfume having leaked out of the capsules upon one month storage, % In Concentrated Liquid Detergent at 37° C.: perfume of Example 9 encapsulated per Example 2, capsules at 1.25% in Tide 2x Concentrated HE Free
Text: The concentrated liquid detergent base was a commercially available Tide® 2× Concentrated HE Free of perfume & dye (trademark of Procter and Gamble, USA).
The concentrated liquid detergent base was the commercially available Tide® 2× Concentrated HE Free of perfume & dye (trademark of Procter and Gamble, USA).

[4] = ingredients of the perfume of Example 6 (Table 1)
[5] = ingredients of the perfume of Example 9 (Table 9)

LogP [1, 4] | LogP [1, 5] | Percentage of ingredient having leaked out of the capsules during one month storage, % In fabric softener 37° C. [2] | Percentage of perfume having leaked out of the capsules upon one month storage, % In fabric softener at 22° C. [2] | Percentage of perfume having leaked out of the capsules upon one month storage, % In fabric softener at 37° C. [2] | Percentage of ingredient having leaked out of the capsules during one month storage, % In concentrated Liquid Detergent 22° C. [3] | Percentage of ingredient having leaked out of the capsules during one month storage, % In concentrated Liquid Detergent 37° C. [3] | Percentage of perfume having leaked out of the capsules upon one month storage, % In Concentrated Liquid Detergent at 22° C. [3] | Percentage of perfume having leaked out of the capsules upon one month storage, % In Concentrated Liquid Detergent at 37° C. [3] | LogP [1] | Compound
 |  | 9% |  |  | 1% | 27% |  |  | 4.45 | C=CCCC(=O)C1=CCCC(C)(C)C1 [Neobutenone ® alpha, 1-(5,5-dimethyl-1-cyclohexen-1-yl)-4-penten-1-one]
3.76 |  | 5% |  |  | 1% | 14% |  |  |  | CC(=O)OC1CC2CC1C1CC=CC21 (stereo not shown) [Verdylate]
 | 3.58 |  | 8% | 68% |  |  | 8% | 92% |  | CC(C)=CC1CC(C)CCO1 (stereo not shown) [Rose oxide]
5.05 |  | 5% |  |  | 1% | 19% |  |  |  | CC1=CCC(C(C)CC2CCCC2=O)CC1 (stereo not drawn) [Nectalactone, (1′R)-2-[2-(4′-methyl-3′-cyclohexen-1′-yl)propyl]cyclopentanone]
4.13 | 4.13 | 3% | 3% | 10% | 1% | 8% | 3% | 16% |  | C/C=C/C(=O)C1C(C)C=CCC1(C)C (stereo not shown) [δ-Damascone]
 | 2.85 |  | 6% | 10% |  |  | 6% | 80% |  | CC(=O)OC1CC2CC1C1CC=CC21 (stereo not shown) [Verdyl acetate, Verdyl Acetate]
 |  |  | 3% | 8% |  |  | 3% | 17% |  | CC(=O)OC1CCCCC1C(C)(C)C (stereo not shown) [Verdox ®, 2-Tert-butyl-1-cyclohexyl acetate]
 |  | 5% | 3% | 13% | 1% | 14% | 3% | 27% |  | CC(=O)/C=C/C1=C(C)CCCC1(C)C [β-Ionone]
4.28 |  | 3% |  |  |  |  |  |  |  | CC1(O)CCC2C(=CCCC2(C)C)C1 (stereo not shown) [Octalynol]

Continued, compound first:

Compound | LogP [1, 4] | LogP [1, 5] | Percentage of ingredient having leaked out of the capsules during one month storage, % In fabric softener 37° C. [2] | Percentage of perfume having leaked out of the capsules upon one month storage, % In fabric softener at 22° C. [2] | Percentage of perfume having leaked out of the capsules upon one month storage, % In fabric softener at 37° C. [2] | Percentage of ingredient having leaked out of the capsules during one month storage, % In concentrated Liquid Detergent 22° C. [3] | Percentage of ingredient having leaked out of the capsules during one month storage, % In concentrated Liquid Detergent 37° C. [3] | Percentage of perfume having leaked out of the capsules upon one month storage, % In Concentrated Liquid Detergent at 22° C. [3] | Percentage of perfume having leaked out of the capsules upon one month storage, % In Concentrated Liquid Detergent at 37° C. [3] | LogP [1]
CC(=O)C1(C)CC2=C(CCCC2(C)C)CC1C (stereo not shown) [Iso E super ®, 1-(octahydro-2,3,8,8-tetramethyl-2-naphtalenyl)-1-ethanone] | 4.71 | 4.71 | 4% | 2% | 4% | 1% | 4% | 2% | 9% | 
CC(C=O)Cc1ccc(C(C)(C)C)cc1 (stereo not shown) [Lilial ®, 3-(4-tert-butylphenyl)-2-methylpropanal] |  | 4.36 | 3% | 0% | 7% | 1% | 14% | 0% | 18% | 4.36
CCCC(C)C(=O)OCC (stereo not shown) [Ethyl 2-methyl-pentanoate] |  | 2.76 |  | 48% | 99% |  |  | 48% | 99% | 
CCCCCCC(C=O)=Cc1ccccc1 [Hexyl cinnamic aldehyde] |  |  |  | 2% | 18% |  |  | 2% | 46% | 4.82
CC(=O)OC(C)(C)C1CCC(C)CC1 (stereo not shown) [Dihydroterpenyl acetate] | 4.42 | 4.42 | 4% | 2% | 0% | 1% | 14% | 2% | 16% | 
CC1=CC(C)C(C=O)CC1 (stereo not shown) [2,4-Dimethyl-3-cyclohexene-1-carbaldehyde] |  |  |  | 20% | 40% |  |  | 20% | 70% | 
CCCCCCCCCCCCCC(=O)OC(C)C [Isopropyl myristate] |  |  |  |  |  |  |  |  |  | 7.17
CC1(C)CCCC2(C)C1CCC1(C)OCCC12 (stereo not shown) [Cetalox ®, dodecahydro-3a,6,6,9a-tetramethyl-naphtho[2,1-b]furan] |  |  | 3% |  |  | 0% | 4% |  |  | 
CC12CCC(CC1)C(C)(C)O2 [1,8-Cineole] | 3.13 |  | 11% |  |  | 2% | 21% |  |  | 
O=C(OC1CCCCC1)c1ccccc1O [Cyclohexyl salicylate] |  |  | 7% |  |  | 1% | 25% |  |  | 4.87
CC(=O)OC/C=C(\C)CCC=C(C)C [Geranyl acetate] |  |  |  | 10% | 53% |  |  | 10% | 77% | 4.48
O=C1CCCCCCCCC/C=C/CCCO1 [Habanolide ®, pentadecenolide] |  |  | 1% | 0% | 0% | 0% | 0% | 0% | 0% | 
C=CCOC(=O)COC1CCCCC1 [Cyclogalbanate, Allyl (cyclohexyloxy)-acetate] |  |  |  | 15% | 82% |  |  | 15% |  | 
